Data published in US20220281930A1, “COMPOSITIONS AND METHODS FOR THE TREATMENT OF PATHOLOGICAL PAIN AND ITCH” (DUKE UNIVERSITY, priority 2019, published 2022).

Columns and labels:
δ-cat [1] = test: δ-cat nuclear translocation in primary neurons, immunolabeling morphometry; assay type: cell-based, rat; conditions: KP vs vehicle, FIG. 8C
Protocol: Immunocytochemistry labeling of cultured neuronal cells was carried out as previously described (Liedtke et al., 2013, Small 9, 1066-1075; Yeo et al., 2009, J Neurosci 29:14652-14662; Yeo et al., 2013, Proc Natl Acad Sci USA 110:4315-4320). Primary antibodies are shown in the antibody table. Anti-KCC2 primary antibodies were validated with developing rat primary cortical neurons; we observed an increase in staining pattern that tightly matched increase of KCC2 mRNA expression (Liedtke et al., 2013, Small 9:1066-1075; Yeo et al., 2009, J Neurosci 29:14652-14662.; Yeo et al., 2013, Proc Natl Acad Sci USA 110:4315-4320). Secondary antibodies used were goat anti-mouse IgG Alexa Fluor 594 (Invitrogen A11032) and goat anti-rabbit IgG Alexa Fluor 594 (Invitrogen A11012). DAPI stain was obtained from Sigma Aldrich (D9542). Stained cells were observed using an inverted confocal microscope (Zeiss LSM780).
We obtained stacks of images recorded at 0.35 μm intervals through separate channels with a 63× oil-immersion lens (NA, 1.40, refraction index, 1.45). Zen software (Zeiss) was used to construct composite images from each optical series by combining the images recorded through the different channels, and the same software was used to obtain Z projection images (image resolution: 1024×1024 pixels; pixel size: 0.11 μm). ImageJ was used for morphometry. […]

[2] = test system: DNFB chronic contact dermatitis model; test: DNFB chronic contact dermatitis scratching behavior; assay type: in vivo, mouse; conditions: daily i.p. 30 mg/kg
Protocol: To assess scratching behavior as a behavioral correlate of itch, mice were shaved at the dorsal neck where topical application of 0.5% DNFB was applied (day 1). […] On day 12, mice were allowed to acclimate to a Plexiglas chamber for at least 30 mins before performing itch behavior test. Scratching behavior was recorded by a Panasonic video camera for a 30-min observation period. Hind limb scratching behavior directed toward the shaved area at the nape of neck was observed. One scratch is defined as a lifting of the hind limb toward the injection site and then a replacing of the limb back to the floor, regardless of how many scratching strokes take place between those two movements. Behavioral analysis was conducted by observers blinded to treatment procedure. DNFB-induced scratching behavior was recorded on day 12 for 1 h. […] Based on these findings, KP's anti-pruritic effects were assessed because inhibitory transmission in the SCDH plays an important role in chronic pruritus (Akiyama et al., 2015, Pain 156:1240-1246.; Bourane et al., 2015, Science 350:550-554; Braz et al., 2017, Prog Brain Res 231:87-105; Braz et al., 2014, J Clin Invest 124:3612-3616; Koch et al., 2018, Annual review of physiology 80:189-217; Mishra and Hoon, 2015, Handbook of experimental pharmacology 226:151-162).

δ-cat [3] = test: Nuclear transfer of transfected human δ-cat in N2a cells; assay type: cell-based, mouse
Description: Plasmid containing human δ-catenin (CTNND2, NM_001288717) open reading frame was obtained from GeneCopeia (EX-A4285-M02) and cloned into pCMV-ENTER vector (Origene PS100001). Site-directed mutagenesis using Phusion DNA Polymerase enzyme (Thermofisher F549L) in conjunction with complementary primers bearing the specific mutation were used to generate the S276A […] mutation S276A. PCR was followed by Dpn1 enzyme digestion to remove parental plasmid DNA. All constructs were verified by sequencing. pCS-CMV-tdTomato plasmid was obtained from Addgene (cat. #30530).
To investigate the relevance of δ-cat residue S276, N2a neural cells were studied because these cells transfect at higher efficiency than primary cortical neurons. In our cultures, N2a cells expressed neuronal ßIII-tubulin in elongated processes as determined by immune-labeling as an indicator of their neuronal differentiation. […] This increase in nuclear transfer was very similar to the trafficking we recorded in primary cortical neurons, thus validating the cell line. […] Of note, there was no increase of nuclear transfer of δ-cat(S276A) upon KP treatment (FIG. 8C and FIG. 8D).

With `O=C1Cc2c([nH]c3ccc(Br)cc23)-c2ccccc2N1` [kenpaullone, 9-bromo-7,12-dihydro-indolo [3,2-d] [1]benzazepin-6(5H)-one] the δ-cat nuclear translocation (δ-cat [1]) was “significantly increases”, the “scratching behavior of sensitized sites” value [2] was “significantly reduced robust scratching behavior” and the “nuclear transfer of δ-cat” value (δ-cat [3]; cells transfected with δ-cat(S276A), KP treatment) was “had no effect”. For the same molecule, the “nuclear transfer of δ-cat” value (δ-cat [3]; cells transfected with δ-cat(WT), KP vs vehicle) was “significantly enhances”.
